Results on one molecule are retold here after US20040086569A1, “Active agent delivery systems, medical devices, and methods” (Medtronic, Inc., priority 2002, published 2004).

For data set [1] the following is noted: Merck Index; cited from earlier work.
Data set [2] can be described thus: Dissolution of coumarin from PL75D/TP blend cap-coated shims in PBS. It is filed as physicochemical. The conditions noted are these: FIG. 19. On the procedure:
P[…] was dried at 70° C. at reduced pressure overnight. The dried pellets were compressed between two plates that were pre-heated to 230° C. and maintained for about 5 minutes. After the sample was cooled down to room temperature, it was placed in a vial filled with THF and stirred until dissolved (by visual observation). […] Coumarin was also dissolved in THF. The concentrations of all the solutions were about 1 wt-%. TL solution and coumarin solution were mixed at a weigh ratio of 1:1. This mixture is the base coating solution of a reservoir system. TP solution and P[…] solution were mixed at various weight ratios to make five different mixtures with the weight ratios of TP to P[…] being 100:0, 75:25, 50:50, 25:75, and 0:100. These solutions are referred to herein as cap coating solutions of the reservoir system. Dissolution samples were prepared with stainless steel (316L) shims (12.1×38.1 mm^2) that were cleaned by rinsing with THF. The cleaned shims were coated with the […] solution. The coated shims were allowed to dry overnight under nitrogen. […] This thermal treatment led to formation of a primer on the surface of the shims that promoted their adhesion with polymer/active agent layers. […] The concentration of coumarin in all these solutions was measured with a liquid chromatography (HP 1090) that was equipped with a UV detector. […]

As to `O=c1ccc2ccccc2o1` [coumarin], the “Volume of cold water that dissolves one gram” value in data set [1] is 400 mL. Besides, the “Release rate, pure cap-coat polymers compared” value in data set [2] (100% PL75D versus 100% TP cap coat) is “release much faster from a 100% PL75D coated shim than that from 100% TP coated shim”. Further, in data set [2] (cap coat blends), the “Release rates from the PL75D/TP blends” value was “between that from the two pure polymers”.
